The structures appear in SMILES notation.

Usually inhibition stands for the drop in the measured response relative to a control, in per cent.

The experiment relates to HEK293. Kind of experiment: Inhibition of Wnt/beta-catenin signaling pathway in human HEK293 cells at 20 uM after 24 hrs by dual luciferase reporter gene assay relative to vehicle-treated control. The conditions noted are these: HEK293, 24 h. (In general: A reporter such as luciferase makes a cellular process visible.)
Regarding `O=C/C=C/c1ccc2c(c1)O[C@@H](CO)[C@H](c1ccc(O)c(O)c1)O2` [AMERICANIN A], the inhibition at 20 µM is 55%.
On to `CC(=O)/C=C/C=C/c1ccc2c(c1)O[C@@H](CO)[C@H](c1ccc(O)c(O)c1)O2`, for which the inhibition at 20 µM amounted to 0.6%.
For `COc1cc([C@@H]2Oc3c(OC)cc(CCCO[C@@H]4O[C@H](CO)[C@@H](O)[C@H](O)[C@H]4O)cc3[C@H]2CO)ccc1O`, the inhibition at 20 µM was -14.8%.
The figure for `COc1cc([C@H]2c3c(cc(O)c(O)c3OC)C[C@@H](CO)[C@@H]2CO)ccc1O` is 2.6%; for `COc1cc([C@@H]2OC[C@@H]3[C@H]2CO[C@@H]3c2ccc(OC)c(OC)c2)ccc1O` it is 24.7%; for `COc1cc([C@H]2OC[C@H]3[C@@H]2CO[C@@H]3c2ccc3c(c2)OCO3)ccc1O[C@@H]1O[C@H](CO)[C@@H](O)[C@H](O)[C@H]1O` [SIMPLEXOSIDE] it is -13.6%.
The figure for `C/C=C/c1cc(OC)c2c(c1)C(C)C(c1ccc(O)c(OC)c1)O2` (stereo not drawn) [DEHRODIISOEUGENOL] is 28%; for `C=CCc1ccc(O)c(-c2ccc(O)c(CC=C)c2)c1` [HONOKIOL] it is 59.3%; for `COc1ccc([C@@H]2OC[C@H]3[C@@H]2CO[C@@H]3c2ccc3c(c2)OCO3)cc1OC` [FARGESIN] it is 29.8%.
Then `O=C/C=C/c1ccc2c(c1)OC(c1ccc3c(c1)OC(CO)C(c1ccc(O)c(O)c1)O3)C(CO)O2` (stereo not drawn), with 69.9%; and `COc1cc(C2Oc3cc([C@H]4Oc5cc(O)cc(O)c5C(=O)[C@@H]4O)ccc3OC2CO)ccc1O` (stereo partly drawn) [SILIBININ], with 8.3%; and `Oc1ccc2c(c1)OCO2`, with 10.1%.
`COc1cc([C@@H](O)[C@@H](CO)Oc2ccc(CCCO)cc2O)ccc1O`: the inhibition at 20 µM was -30.7%.
For the molecule `COc1cc2c(c(OC)c1OC)-c1c(cc3c(c1OC)OCO3)C[C@H](C)[C@H](C)C2` [WUWEIZISU B], the inhibition at 20 µM is -17.8%.
The figure for `COc1cc2c(c(OC)c1OC)-c1c(cc3c(c1OC)OCO3)C[C@H](C)[C@](C)(O)C2` [GOMISIN A] is 38.2%.
The figure for `C=CCc1ccc(O)c(-c2cc(CC=C)ccc2O)c1` [MAGNOLOL] is 72.4%; for `C/C=C(\C)C(=O)O[C@H]1c2cc(OC)c(OC)c(OC)c2-c2c(cc3c(c2O)OCO3)C[C@H](C)[C@]1(C)O` [SCHISANTHERIN C] it is -9.3%; for `COc1cc(CC(CO)c2cc(/C=C/CO)cc(OC)c2O[C@@H]2O[C@H](CO)[C@@H](O)[C@H](O)[C@H]2O)ccc1O` (stereo partly drawn) it is 11.4%.
Then `COC(=O)[C@@H](Cc1ccc(O)c(O)c1)OC(=O)/C=C/c1ccc(O)c2c1[C@@H](C(=O)O[C@H](Cc1ccc(O)c(O)c1)C(=O)OC)[C@H](c1ccc(O)c(O)c1)O2`, with 10.5%; and `COc1cc([C@H]2OC[C@@H]3[C@@H]2CO[C@H]3c2cc(OC)c(O[C@@H]3O[C@H](CO)[C@@H](O)[C@H](O)[C@H]3O)c(OC)c2)cc(OC)c1O[C@@H]1O[C@H](CO)[C@@H](O)[C@H](O)[C@H]1O`, with 9.8%; and `O=C(/C=C/c1ccc(O)c(O)c1)O[C@H](Cc1ccc(O)c(O)c1)C(=O)O` [ROSMARINIC ACID], with 27%.
As for `COc1cc2c(c(OC)c1OC)-c1c(cc(OC)c(OC)c1OC)C[C@](C)(O)[C@@H](C)C2` [SCHIZANDRIN], the inhibition at 20 µM worked out at 6.2%.
Then `COc1cc([C@@H]2Oc3c(OC)cc(CCCO)cc3[C@H]2CO)ccc1O` [DIHYDRODEHYDRODICONIFERYL ALCOHOL], with 31.4%.
Regarding `c1cc2c(cc1[C@H]1OC[C@H]3[C@@H]1CO[C@@H]3c1ccc3c(c1)OCO3)OCO2` [SESAMIN], the inhibition at 20 µM was determined as 39.7%.
Then `COc1cc(C[C@H]2COC(=O)[C@@H]2Cc2ccc(O[C@@H]3O[C@H](CO)[C@@H](O)[C@H](O)[C@H]3O)c(OC)c2)ccc1O` [MATAIRESINOSIDE], with 9.3%.
The figure for `O[C@]12CO[C@H](c3ccc4c(c3)OCO4)[C@H]1CO[C@@H]2c1ccc2c(c1)OCO2` is -3.5%; for `COc1ccc([C@@H]2OC[C@@H]3[C@H]2CO[C@H]3c2ccc(OC)c(OC)c2)cc1OC` [EUDESMINE] it is 26.3%.
For the molecule `c1cc2c(cc1O[C@H]1OC[C@H]3[C@@H]1CO[C@@H]3c1ccc3c(c1)OCO3)OCO2` [SESAMOLIN], the inhibition at 20 µM was found to be 11.6%.

(Values after ChEMBL document CHEMBL2440042, “Anti-proliferative activity of hydnocarpin, a natural lignan, is associated with the suppression of Wnt/β-catenin signaling pathway in colon cancer cells” (Bioorg Med Chem Lett, 2013).)
